In patent US6699834B1, “Method for treating cancer” (University of Maryland Biotechnology Institute, priority 1997, dated 2004):

How the values were obtained:
[1] = test system: HIV-1; details: for HIV in vitro Inhibition: inhibition of HIV-1 replication in vitro (HIV-1 strains and HIV-1 primary isolates)
Source text: To prepare HIV infected cells for the in vitro assay of hCG preparations and β-hCG peptides and derivatives, primary PBMCs, macrophages, and CD4^+ T cells isolated from peripheral blood and the H9 human T cell line, were acutely or chronically infected with 8 different HIV-1 strains: 4 cell line adapted viruses, namely the macrophage tropic Ba-L strain (Gartner et al., 1986, Science 233:215-219) and the CD4^+ T cell tropic MN, RF, and IIIB strains (10^5 TCID50/ml) (Popovic et al., 1984, Science […]; Gallo et al.; 1984, Science 224:500-503); 2 isolates, Ju1083 and G3, from Nigerian AIDS patients passed once in a CD4^+ T cell line (Sub-T1); and 2 primary (“clinical”) isolates from AIDS patients from Trinidad which were never passed in any cell line and were used at a titer of 7.5×10^4TCID50/ml. In all experiments; HIV1 (10^5 TCID50/ml) was added to the cells(10^6 cells/ml) for a 2 hour incubation after which the virus infected cells were washed with 10 ml phosphate buffered saline (PBS) three times to eliminate extra cellular virus. The test inhibitor, i.e. the hCG or β-hCG peptide preparation was then added and the cells were incubated with the test inhibiter for 9 to 10 days with serial sampling. Cultures were assayed for p24 antigen on days 3 to 10.
Peptides of the α- and β-subunits (0.05 to 50 nmoles/ml), native α chain preparation, and various crude preparations of the native hCG heterodimer (0.01 to 1,000 IU) and the native β-hCG subunit (100 to 1,000 μg) were tested for effects on HIV-1 replication in acutely infected cells-by measuring change in viral antigen levels in response to the above noted preparations (FIGS. 4A-D and Table 3).
The fractions were then tested for anti-HIV, anti-KS and pro-hematopoietic activities in vitro. To assay for inhibition of HIV-1 replication in vitro, the HIV-1 […] viral strain was used to infect PBMCs and PM-1 cells (derived from the HUT-78 T-cell lymphoma cell line) at 10^3 TCID50/ml as described in detail herein.

[2] = test system: KS Y-1 and KS-SLK cells; experiment: Kaposi's Sarcoma clonogenic assay in cultured cells; assay type: cell-based, human; details: inhibition of Kaposi's Sarcoma cell growth in vitro in cultured cells
Description: Briefly, the KS Y-1 cells were obtained from mononuclear cells isolated from pleural effusion of an AIDS patient with KS in the lungs. After the depletion of T lymphocytes, monocytes/macrophages and fibroblasts using monoclonal antibodies against CD2, CD3, CD4, CD8, CD10 and CD14 membrane antigens and baby rabbit complement, the cells were cultured in the absence of exogenous growth factors to select for transformed cells. […] Clonogenic assays were performed by seeding the KS Y-1 or KS-SLK cells in methylcellulose (0.8%, v/v), incubating the cells for 10 days in the presence or absence of the hCC, β-hCG or β-hCG peptide preparations and then counting the number of well-formed colonies of triplicate wells formed after seeding with 5×10^4 cells.
To assay for activity against Kaposi's sarcoma cell growth in vitro, the clonogenic assay described herein was used with the KS Y-1 and KS-SLK cultured Kaposi's Sarcoma cell lines,.

[3] = test system: hematopoietic progenitor cells; experiment: Hematopoietic progenitor clonogenic assays (CFU-GEMM, BFU-e, CFU-GM); assay type: cell-based, human; details: relative increase of hematopoietic colony cell number; hCG preparations 200 IU/ml, subunits and peptides 100 μg/ml
Description: The effect of hCG preparations and peptides was assayed on hematopoietic progenitor cells in vitro: Hematopoietic progenitor cells (2×10^5 cell/ml) were isolated from normal bone marrow and cord blood and seeded in methylcellulose. […] The hCG preparations were administered at 200 IU/ml and the β- and α-subunits and peptides were administered at 100 μg/ml. The native commercial preparation of hCG (APL™, Wyeth Ayerst) was pre-tested for anti-HIV and anti-KS activities. Aggregates containing more than 50 cells after 10 days of culture were counted as colonies.

14. 1-20: β-hCG amino acids 1-20 (SKEPLRPRCRPINATLAVEK; UniProt P0DN86 21-40, looked up, fragment)
HIV in vitro Inhibition [1]: − (“−” represents less than 10% effect)
KS in vitro [2]: − (“−” represents less than 10% effect)

16. 31-50: β-hCG amino acids 31-50 (TTICAGYCPTMTRVLQGVLP; UniProt P0DN86 51-70, looked up, fragment)
HIV in vitro Inhibition [1]: − (“−” represents less than 10% effect)
Pro-hematopoiesis in vitro Enhancement [3]: − (“−” represents less than 10% effect)
KS in vitro [2]: − (“−” represents less than 10% effect)

17. 46-65: β-hCG amino acids 46-65 (SEQ ID NO:34) (QGVLPALPQVVCNYRDVRFE)
inhibition of HIV-1 infection/replication in vitro (in words) [1]: inhibited HIV-1 replication
HIV in vitro Inhibition [1]: + (“+” represents greater than 15% effect)
KS in vitro [2]: + (“+” represents greater than 15% effect)

18. 91-112: β-hCG amino acids 91-112 (ALCRRSTTDCGGPKDHPLTCDD; UniProt P0DN86 111-132, looked up, fragment)
Pro-hematopoiesis in vitro Enhancement [3]: − (“−” represents less than 10% effect)
KS in vitro [2]: − (“−” represents less than 10% effect)

19. 93-100: β-hCG amino acids 93-100 (CRRSTTDC; UniProt P0DN86 113-120, looked up, fragment)
HIV in vitro Inhibition [1]: − (“−” represents less than 10% effect)
KS in vitro [2]: − (“−” represents less than 10% effect)

20. 110-145: β-hCG amino acids 110-145 (CDDPRFQDSSSSKAPPPSLPSPSRLPGPSDTPILPQ; UniProt P0DN86 130-165, looked up, fragment)
Pro-hematopoiesis in vitro Enhancement [3]: − (“−” represents less than 10% effect)
KS in vitro [2]: − (“−” represents less than 10% effect)

21. 74-95: β-hCG amino acids 74-95 (RGVNPVVSYAVALSCQCALCRR; UniProt P0DN86 94-115, looked up, fragment)
HIV in vitro Inhibition [1]: − (“−” represents less than 10% effect)
Pro-hematopoiesis in vitro Enhancement [3]: − (“−” represents less than 10% effect)
KS in vitro [2]: − (“−” represents less than 10% effect)

22. 7-40: β-hCG amino acids 7-40 (SEQ ID NO:33) (PRCRPINATLAVEKEGCPVCITVNTTICAGYCPT)
inhibition of HIV-1 infection/replication in vitro (in words) [1]: inhibited HIV-1 replication
HIV in vitro Inhibition [1]: + (“+” represents greater than 15% effect)
Pro-hematopoiesis in vitro Enhancement [3]: − (“−” represents less than 10% effect)
KS in vitro [2]: + (“+” represents greater than 15% effect)

23. 57-93: β-hCG amino acids 57-93 (CNYRDVRFESIRLPGCPRGVNPVVSYAVALSCQCALC; UniProt P0DN86 77-113, looked up, fragment)
HIV in vitro Inhibition [1]: − (“−” represents less than 10% effect)
Pro-hematopoiesis in vitro Enhancement [3]: − (“−” represents less than 10% effect)
KS in vitro [2]: − (“−” represents less than 10% effect)

24. 34-39: β-hCG amino acids 34-39 (CAGYCP; UniProt P0DN86 54-59, looked up, fragment)
HIV in vitro Inhibition [1]: − (“−” represents less than 10% effect)
KS in vitro [2]: − (“−” represents less than 10% effect)

25. 123-145: β-hCG amino acids 123-145
HIV in vitro Inhibition [1]: − (“−” represents less than 10% effect)
KS in vitro [2]: − (“−” represents less than 10% effect)

26. 134-144: β-hCG amino acids 134-144
HIV in vitro Inhibition [1]: − (“−” represents less than 10% effect)
Pro-hematopoiesis in vitro Enhancement [3]: − (“−” represents less than 10% effect)
KS in vitro [2]: − (“−” represents less than 10% effect)

27. 100-110: β-hCG amino acids 100-110 (CGGPKDHPLTC; UniProt P0DN86 120-130, looked up, fragment)
HIV in vitro Inhibition [1]: − (“−” represents less than 10% effect)
KS in vitro [2]: − (“−” represents less than 10% effect)

28. 113-132: β-hCG amino acids 113-132 (PRFQDSSSSKAPPPSLPSPS; UniProt P0DN86 133-152, looked up, fragment)
Pro-hematopoiesis in vitro Enhancement [3]: − (“−” represents less than 10% effect)
KS in vitro [2]: − (“−” represents less than 10% effect)

29. 128-145: β-hCG amino acids 128-145 (LPSPSRLPGPSDTPILPQ; UniProt P0DN86 148-165, looked up, fragment)
HIV in vitro Inhibition [1]: − (“−” represents less than 10% effect)
Pro-hematopoiesis in vitro Enhancement [3]: −V (“−” represents less than 10% effect)
KS in vitro [2]: − (“−” represents less than 10% effect)

31. 51-59: β-hCG amino acids 51-59 (ALPQVVCNY; UniProt P0DN86 71-79, looked up, fragment)
HIV in vitro Inhibition [1]: − (“−” represents less than 10% effect)
Pro-hematopoiesis in vitro Enhancement [3]: − (“−” represents less than 10% effect)
KS in vitro [2]: − (“−” represents less than 10% effect)

34. 88-92: α-hCG amino acids 88-92 (YYHKS; UniProt P01215 112-116, looked up, fragment)
inhibition of HIV-1 infection/replication in vitro (in words) [1]: little or no effect
HIV in vitro Inhibition [1]: − (“−” represents less than 10% effect)
KS in vitro [2]: − (“−” represents less than 10% effect)

36. 16-30: α-hCG amino acids 16-30 (PFFSQPGAPILQCMG; UniProt P01215 40-54, looked up, fragment)
HIV in vitro Inhibition [1]: − (“−” represents less than 10% effect)
Pro-hematopoiesis in vitro Enhancement [3]: − (“−” represents less than 10% effect)
KS in vitro [2]: − (“−” represents less than 10% effect)

37. 26-45: α-hCG amino acids 26-45 (LQCMGCCFSRAYPTPLRSKK; UniProt P01215 50-69, looked up, fragment)
HIV in vitro Inhibition [1]: − (“−” represents less than 10% effect)
Pro-hematopoiesis in vitro Enhancement [3]: − (“−” represents less than 10% effect)
KS in vitro [2]: − (“−” represents less than 10% effect)

38. 41-61: α-hCG amino acids 41-61 (LRSKKTMLVQKNVTSESTCCV; UniProt P01215 65-85, looked up, fragment)
HIV in vitro Inhibition [1]: − (“−” represents less than 10% effect)
KS in vitro [2]: − (“−” represents less than 10% effect)

39. 57-76: α-hCG amino acids 57-76 (STCCVAKSYNRVTVMGGFKV; UniProt P01215 81-100, looked up, fragment)
HIV in vitro Inhibition [1]: − (“−” represents less than 10% effect)
KS in vitro [2]: − (“−” represents less than 10% effect)

40. 72-92: α-hCG amino acids 72-92 (GGFKVENHTACHCSTCYYHKS; UniProt P01215 96-116, looked up, fragment)
HIV in vitro Inhibition [1]: − (“−” represents less than 10% effect)
Pro-hematopoiesis in vitro Enhancement [3]: − (“−” represents less than 10% effect)
KS in vitro [2]: − (“−” represents less than 10% effect)

Oc1ccccc1 [phenol, reference compound]
inhibition of HIV-1 infection/replication in vitro (in words) [1]: no effect on HIV-1 replication
